Experimental data reported in patent EP4205753A1, “ANTIVIRAL PLANT EXTRACT COMPOSITION AND METHOD FOR PREPARING SUCH COMPOSITION” (priority 2021, dated 2023).
Like-named read-outs stand apart in the source and are kept apart here.

Tests used:
SARS-CoV-2 [1] = test: microbe, parasite or virus in culture; conditions: Severe acute respiratory syndrome coronavirus 2, Vero C1008, 55 h, read-out: viability in comparison with non-infected cells
SARS-CoV-2 [2] = tested on: SARS-CoV-2

SMILES | viability at 25 µM (SARS-CoV-2 [1]) | cell viability in comparison with non-infected cells (SARS-CoV-2 [2]; 1 µM) | cell viability in comparison with non-infected cells (SARS-CoV-2 [2]; 10 µM)
CCC(CC)COC(=O)[C@H](C)N[P@](=O)(OC[C@H]1O[C@@](C#N)(c2ccc3c(N)ncnn23)[C@H](O)[C@@H]1O)Oc1ccccc1 [Remdesivir] | 97% | – | –
C=C[C@H](OC(C)=O)c1ccc(OC(C)=O)cc1 [AAC, acetoxychavicol acetate] | – | 59% | 66%
